Measured values: US6766183B2, “Long wave fluorophore sensor compounds and other fluorescent sensor compounds in polymers” (Medtronic MiniMed, Inc., priority 1995, dated 2004)

Columns and labels:
[1] = Fluorescence excitation and emission wavelengths; assay type: physicochemical; details: aqueous PBS; for maximum emission wavelength: irradiated at 621 nm
Excerpt: An exemplary oxazine-based biosensor molecule of the present invention utilizes Nile blue as the fluorophore as shown in FIG. 2. The Nile blue-based biosensor molecule has an excitation wavelength of about 625 nm and a maximum emission wavelength of about 675 nm (see, e.g. FIGS. 8). Similar oxazine-based fluorophores suitable for use in embodiments of the present invention may include one or more functional groups selected from the following: aliphatic, aromatic, haloalkane, alcohol, ether, amine, cyano, nitro group, aldehyde, ketone, ester, carboxylic acid, sulfonic acid and phosphoric acid functional groups.
As illustrated above, the oxazine-based molecules in accordance with embodiments of the invention solve the problem of obtaining optimal optical transmission of fluorescence via implanted fluorescent reporter systems of in-vivo polyhydroxylate analyte concentrations. […] Particular embodiments of the biosensor molecules of the invention have at least one maximum wavelength in their emission spectra that is greater than about 600 nm and have at least one wavelength in their emission spectra that is greater than about 650 nm. An exemplary oxazine-based biosensor molecule in accordance with embodiments of the invention utilizes Nile Blue as a fluorophore. This Nile Blue biosensor molecule generally has an excitation wavelength of about 625 nm and an emission wavelength of about 675 nm in an aqueous Phosphate Buffered Saline (PBS) solution. Particular embodiments of the invention, however, may emit in the near infrared (IR) region of the spectrum.
Results: After work-up, the reaction was concentrated to dryness. A sample of the blue residue (˜1 mg), dissolved in DMSO (1 ml), was aliquoted (100 □ L) and dissolved in PBS (20 mL). A sample PBS solution (3 mL) contained in a cuvette and irradiated at 621 nm, gave rise to the appearance of a maximum emission peak at 671 nm. Successive additions of glucose (150 mg/dL), added to the cuvette, led to an increase in […] intensity, at 671 nm, after each addition. The first addition of glucose gave rise to a 7.5% increase in fluorescence at 671 nm. After the second addition of glucose, the intensity rose 14.3% relative to the blank. Addition of the third aliquot of glucose gave an 18.8% rise in fluorescent intensity relative to the blank. […] A control fluorescence experiment was performed containing Nile Blue A using the same conditions as mentioned above.

[2] = Glucose transduction of Nile Blue boronate: fluorescence in DMSO/PBS, ex 621 nm, em 671 nm; details: for fluorescent intensity increase at 671 nm: ex 621 nm, relative to blank, listed as 1; for fluorescent intensity increase at 671 nm / increase in fluorescent intensity at 671 nm: DMSO/PBS; for increase in fluorescent intensity at 671 nm: separate batch
Method: A typical embodiment of the invention uses Nile Blue as an illustrative oxazine-based fluorophore.
Results: After work-up, the reaction was concentrated to dryness. A sample of the blue residue (˜1 mg), dissolved in DMSO (1 ml), was aliquoted (100 □ L) and dissolved in PBS (20 mL). […] A control fluorescence experiment was performed containing Nile Blue A using the same conditions as mentioned above.
(§1) To a round bottom flask, equipped with a reflux condenser under N2, containing Nile Blue perchlorate salt (42 mg, 0.1 mmol), boronate (28 mg, 0.1 mmoles) and K2CO3 (˜1 g) was added CH3CN (25 mL). The reaction was heated at reflux for 24 hours after which the solvent evaporated and the reaction went to dryness. The sample of the reaction mixture (1 mg, 2.21 mole) was dissolved in DMSO (1 mL). An aliquot (100 μL) was dissolved in PBS (20 mL). A sample of this solution (3 mL) was placed into the fluorolog and fluorescent measurements were made (ex=621 nm, slits at 10 and 20) at various glucose concentrations (0 mg/dL, 150 mg/dL, 300 mg/dL and 450 mg/dL) with a sampling interval of 45 min.
as §1, with “(22” for “(28”, “The reaction was heated at reflux for 24 hours after which the solvent evaporated and the reaction went to dryness.” left out, “[…])” for “mole)”
as §1, with “[…])” for “mole)”

[3] = Glucose transduction in PBS, relative fluorescent intensity (FIG. 18 format)
Method: FIG. 18 is a graph showing Nile Blue boronate's transduction of glucose in PBS.
The figures provided herein further illustrate various embodiments of the invention and their properties in order to further facilitate artisans' making and using the invention. For example, using the graphic format provided in FIG. 18, experiments confirming properties of Nile Blue were performed with the following results: […]

Water solubility = assay type: physicochemical
Excerpt: Exemplary long wavelength glucose-sensing molecule containing an oxazine (Nile Blue) coupled with a phenyl boronate suitable for detection of glucose, following polymer incorporation, in vivo is shown in FIGS. 2 and 3. FIG. 2 provides a comparison of fluorescent excitations of representative fluorophores including the oxazine Nile Blue. The excitation and emission profile of anthracene based compounds are well below that of Nile Blue's fluorescent profile (see, e.g., FIG. 3). […] It is feasible to substitute other oxazines of similar structure for Nile Blue.

Q: Which results are given for Nile Blue Boronate?
A: excitation wavelength [1]: about 625 nm; maximum emission wavelength ([1]; listed as 1): 671 nm; maximum emission wavelength ([1]; listed as Nile Blue biosensor molecule): about 675 nm; maximum emission wavelength ([1]; listed as Nile blue-based biosensor molecule): about 675 nm; fluorescent intensity increase at 671 nm ([2]; glucose 150 mg/dL): 7.5%; fluorescent intensity increase at 671 nm ([2]; glucose 300 mg/dL): 14.3%; fluorescent intensity increase at 671 nm ([2]; glucose 450 mg/dL): 18.8%; glucose transduction ([2]; in water): transduces glucose exceptionally well; increase in fluorescent intensity at 671 nm ([2]; glucose 150 mg/dL (first addition)): 23.4%; increase in fluorescent intensity at 671 nm ([2]; glucose 300 mg/dL (second addition)): 37.8%; increase in fluorescent intensity at 671 nm ([2]; glucose 450 mg/dL (third addition)): 47.4%

Q: What does the source list for Nile Blue A?
A: relative fluorescent intensity ([3]; glucose 0 mg/dl): 1.0; relative fluorescent intensity ([3]; glucose 150 mg/dl): 1.085; relative fluorescent intensity ([3]; glucose 300 mg/dl): 1.239; relative fluorescent intensity ([3]; glucose 450 mg/dl): 1.398; relative fluorescent intensity ([3]; glucose 1000 mg/dl): 1.513

Q: What does the source list for `CC[N+](CC)=c1ccc2nc3c(cc(N)c4ccccc43)oc-2c1` [Nile Blue, Nile Blue A, reference compound]?
A: solubility in water (Water solubility): highly soluble in water; glucose transduction (control experiment) ([2]; DMSO/PBS solutions, same conditions as the boronate): incapable of transducing glucose
